Where two headings read alike, the source gives them in different places.
Tests used:
[1] = system: P(40) particulate fraction of Methylosinus sp. (CRL-15, NRRL B-11,202); assay: Oxidation of n-alkenes and n-alkanes by P(40) particulate fraction (Table X); assay type: biochemical; details: P(40) fraction, 30° C.
[2] = system: cell suspensions of the strains of C1-utilizers tested; assay: Production of methyl ketones from secondary alcohols by cell suspensions of C1-utilizers (strains tested); assay type: cell-based; details: cell suspensions of C1-utilizers
Source text: The substrate specificity for the oxidation of C3 -C6 secondary alcohols by the strains of C1 -utilizers was studied.

[3] = system: secondary alcohol dehydrogenase (SADH); assay: Substrate specificity and Michaelis constants of purified SADH; assay type: biochemical, Pseudomonas sp. ATCC 21439
Description: Secondary alcohol dehydrogenase (SADH) from an obligate methanol utilizer, Pseudomonas sp. ATCC 21439 was purified as follows. […] 0.05 M sodium phosphate buffer, pH 7.0 with 0.5mM dithiothretol (buffer A) and were disrupted sonically (5×1 min.). The crude extract was separated by centrifugation. The crude extract was heat-treated at 50° C. in a water bath for 10 minutes. The resulting precipitate was removed by centrifugation. To the supernatant solution, 25 ml of protamine sulfate solution (2% solution in 0.1 M Tris base) was added dropwise with continuous stirring. After standing for 30 minutes, the extract was centrifuged. The supernatant solution was fractionated with solid ammonium sulfate. […] This DEAE-cellulose eluate was concentrated by ammonium sulfate fractionation. Material precipitating between 30 and 50% ammonium sulfate saturation was collected by centrifugation and dialyzed overnight against A. This fraction was further washed and filtered through an Amicon unit with XM 50 membrane. The concentrated fraction (6 ml) inside the Amicon unit was applied to an Affi-Gel Blue column (0.8 cm ×18 cm) which had been equilibrated with buffer A for affinity chromatography. The column was washed overnight with buffer A (0.18 ml./min.) and then was eluted with buffer A containing 5 mM NAD. Each 1 ml. fraction was collected.
The purified secondary alcohol dehydrogenase enzyme (SADH) may be used directly for converting C3 -C6 secondary alcohols to the corresponding methyl ketones by the procedures described above; however, a source of NAD^+ must be added to the reaction medium. One can determine the NAD-linked secondary alcohol dehydrogenase activity with a fluorescence spectrophotometer (Perkin Elmer, Model MPF 44A) by following the formation of reduced NAD (Ex 340 nm, Em 460 nm). The assay system (3 ml.) will typically contain: sodium phosphate buffer pH 7.0, 150 μmol; NAD 1.0 μmol; a given amount of enzyme preparation; and 20 μmol secondary alcohol. The reaction is started by the addition of secondary alcohol. One unit of SADH enzyme activity represents the reduction of one nmole NAD per minute.

[4] = system: purified secondary alcohol dehydrogenase; assay: Substrate and electron acceptor specificity of purified yeast secondary alcohol dehydrogenase; assay type: biochemical, Pichia sp. NRRL Y-11,328; details: for Oxidation by the purified yeast enzyme (in words): examined spectrophotometrically
Description: (§1) Large scale cultures of Pichia sp. NRRL Y-11,328 were grown with aeration at 30° C. in a 14-liter New Brunswick f fermentor in a mineral salt medium containing methanol (0.4%, v/v) as the sole carbon source. The cells (200 g., wet weight) were suspended in 50 mm sodium phosphate buffer, pH 7.0, containing 1 mM dithiothreitol (buffer A), and crude extracts were prepared as described previously. To the crude extracts, 18 ml. of protamine sulfate solution [2% solution in 0.1 M tris (hydroxymethyl) aminomethane (tris) base] was added dropwise with continuous stirring. After standing for 30 min., the extracts were centrifuged at 20,000 x g. for 60 min. The supernatant solution was fractioned with solid ammonium sulfate. Extracts were brought to 50% of saturation with respect to ammonium sulfate by addition of 313 g. of the salt per liter of extract. Precipitated proteins was removed by centrifugation, and 137 g. of ammonium sulfate was added per liter of the supernatant liquid to bring it to 70% of saturation. Material precipitating between 50 and 70% of saturation was collected by centrifugation and dissolved in buffer A. This preparation was dialyzed overnight against buffer A, and the dialyzed material was applied to a DEAE-cellulose column (5×40 cm) that had been equilibrated with buffer A. The sample was washed with 200 ml. of buffer A and eluted with 2 liters of buffer A that contained NaCl in a linear gradient running from a concentration of 0 to 0.5 M. Fractions of 15 ml. were collected. Fractions containing secondary alcohol dehydrogenase activity were pooled and were termed DEAE-cellulose eluate. The DEAE-cellulose eluate was concentrated by ammonium sulfate fractionation.
(§2) Secondary alcohol dehydrogenase activity was measured spectrophotometrically at 340 nm with a NAD^+ as an electron acceptor. The reaction mixture, in a total 3.0 ml., contained 50 mM phosphate buffer, pH 8.0, 5μmoles NAD^+, crude extracts, and substrate. The reactions were started by addition of 100 μof 0.1 M substrate and the rate of NAD^+ reduction was measured. Protein concentration was determined by the method of Lowry et al.
The substrate specificity of the purified secondary alcohol dehydrogenase was examined spectrophotometrically.

[5] = system: purified secondary alcohol dehydrogenase; assay: Stoichiometry of isopropanol and sec-butanol oxidation by the purified secondary alcohol dehydrogenase (Table XXIV); assay type: biochemical, Pichia sp. NRRL Y-11,328; details: substrate 5.7 (isopropanol) or 6.0 (2-butanol) μmoles; for Product formed (acetone or 2-butanone): gas chromatography; for NAD^+ reduced: spectrophotometrically at 340 nm
Description: ^a The estimation of NAD^+ reduced was measured
spectrophotometrically at 340 nm.
^b The estimation of products was detected by gas chromatography as
described in the methods.

[6] = system: cell-free extracts of strain ATCC 21439; details: 30° C.
Description: The reaction mixtures 3 ml (1.0 mg protein) were incubated at 30°
C. for 10 min. (exp. 1) and for 20 min. (exp. 2) in the presence of 1.0
^a Determined gas chromatographically.
^b Determined fluorescence spectrophotometrically. Endogenous
consumption of NAD was corrected.

[7] = system: Methylobacter vinelandii (CRL M5Y NRRL B-11,218); assay: Microbiological oxidation of cyclic hydrocarbons by methane-grown washed cells (Example 7); assay type: cell-based; details: aerobic
Description: A 0.5 ml sample of each washed cell suspension (2 mg cells) was put into 10 ml vials at 4° C. which were sealed with a rubber cap. The gaseous phase of the vials was removed with vacuum and then was replaced with a gas mixture of the oxidative substrate (e.g., methane) and oxygen at a 1:1 v/v ratio. […] Samples of product (3 μl) were withdrawn periodically with a microsyringe and the products were analyzed by gas chromatography (ionization flame detector column).
Methylobacter vinelandii (CRL M5Y NRRL B-11,218) was aerobically grown in a methane-containing nutrient medium in the manner described in Example 1 and the methane-grown washed cells were contacted under aerobic conditions with cyclohexane, benzene and toluene.

[8] = system: cell-free soluble extracts (SADH system); assay: Cofactor requirement of cell-free SADH system (2-butanol to 2-butanone); assay type: biochemical
Description: The clear supernatant contained the SADH activity. […] The reaction was started by the addition of substrate.
Catalytic activity was also assayed by fluorescence spectrophotometry.

[9] = system: P(40) particulate fraction of Methylosinus sp. (CRL-15, NRRL B-11,202); assay: Substrate competition: effect of methane on propylene epoxidizing activity of P(40) fraction (Table XIII); assay type: biochemical; details: gaseous substrate as named
Description: The oxidation of methane and propylene by particulate [(P)40 and (P)80] fractions and soluble [S(80)] fraction was measured at 30° C. by estimating the production of methanol and propylene oxide, respectively. The reaction mixtures contained in 1.0 ml: 150 mM potassium phosphate buffer, pH 7.0 containing 5 mM MgC2, 0.6 ml; 10 μmoles NADH, and cellular fraction.
Reaction mixtures were contained in 10 ml vials at 4° C. Vials were sealed with rubber caps. The gaseous phase in the vials was removed using vacuum and then was replaced with a gas mixture of methane or propylene and oxygen at a 1:1, v/v ratio. Oxidation of other gaseous n-alkanes and n-alkenes was examined as described above. For liquid substrates, 10 μ of substrate was used directly.
The hydroxylation of methane and the epoxidation of propylene by particulate fractions of methane-utilizing bacteria required oxygen and NADH. The question of whether the same or a similar enzyme was involved in the oxidation of both substrates was examined by substrate competition experiments. The experiment consisted of determining the effect of methane on the oxidation of propylene to propylene oxide by the P(40) particulate fraction of Methylosinus sp. (CRL-15, NRRL B-11,202).

[10] = system: P(40) particulate fraction of Methylosinus sp. (CRL-15, NRRL B-11,202); assay: Stoichiometry of propylene epoxidation and methane hydroxylation by P(40) fraction (Table XIV); assay type: biochemical; details: 5.0 μmoles substrate; for Product formed: gas chromatography; for O2 consumed: polarographic; for NADH oxidized: spectrophotometric
Description: The particulate P(40) fraction of Methylosinus sp. (CRL-15, NRRL B-11,202) was used to determine the stoichiometry of hydroxylation and epoxidation reactions. The stoichiometry of methane or propylene-dependant NADH oxidation, oxygen consumption and product formation was approximately 1:1:1 Table XIV. This is consistent with methane or propylene oxygenation being catalyzed by a mono-oxygenase.
^a Under identical condition of reaction, the estimation of NADH
oxidized was carried out spectrophotometrically, the estimation of oxygen
consumed was measured polarographically, and the estimation of product
formed was carried out by gas chromatography.

[11] = system: cell-free particulate fractions derived from the methylotrophic microorganisms; assay: Inhibition of conversion of C3-C6 n-alkanes to sec. alcohols by cell-free particulate fractions; assay type: biochemical; details: oxygen and NADH
Source text: The conditions for preparing the cell suspensions or the cell-free particulate fractions from methane-grown methylotroph microorganisms is the same as described above.

[12] = system: purified secondary alcohol dehydrogenase; assay: Inhibition of purified yeast secondary alcohol dehydrogenase; assay type: biochemical, Pichia sp. NRRL Y-11,328; details: purified yeast enzyme
Description: as §1, §2
Various primary alcohols not oxidized by secondary alcohol dehydrogenase were tested as potential inhibitors of enzyme activity.

C=CCC [1-Butene]
Rate of product formation (substrate to epoxide or alcohol) [1]: 2.18 μ moles/hr/mg of protein

C=CCCC [1-Pentene]
Rate of product formation (substrate to epoxide or alcohol) [1]: 0 μ moles/hr/mg of protein

CCC(C)O (stereo not shown) [2-butanol]
Rate of oxidation of secondary alcohols to methyl ketones [2]: higher rates | Oxidation by purified SADH (in words) [3]: highest | Oxidation by the purified yeast enzyme (in words) [4]: catalyzed the oxidation | Product formed (acetone or 2-butanone) [5]: 5.7 µmol | NAD^+ reduced [5]: 5.9 µmol | 2-Butanol consumed ([6]; experiment 1, 10 min.): 260 nmol | 2-Butanol consumed ([6]; experiment 2, 20 min.): 530 nmol | NAD consumed ([6]; experiment 2, 20 min.): 540 nmol

CC(C)O [2-propanol]
Rate of oxidation of secondary alcohols to methyl ketones [2]: higher rates | Oxidation by purified SADH (in words) [3]: highest | Oxidation by the purified yeast enzyme (in words) [4]: catalyzed the oxidation | Product formed (acetone or 2-butanone) [5]: 5.5 µmol | NAD^+ reduced [5]: 5.4 µmol

C=CC=C [Butadiene]
Rate of product formation (substrate to epoxide or alcohol) [1]: 0.63 μ moles/hr/mg of protein

C1CCCCC1 [Cyclohexane]
Conversion rate to cyclohexanol [7]: 1.5 μmoles/2 hr./mg. protein

CC [Ethane]
Rate of product formation (substrate to epoxide or alcohol) [1]: 3.2 μ moles/hr/mg of protein

C=C [Ethylene]
Rate of product formation (substrate to epoxide or alcohol) [1]: 1.27 μ moles/hr/mg of protein

Cc1cc2nc3c(=O)[nH]c(=O)nc-3n(C[C@H](O)[C@H](O)[C@H](O)COP(=O)(O)OP(=O)(O)OC[C@H]3O[C@@H](n4cnc5c(N)ncnc54)[C@H](O)[C@@H]3O)c2cc1C [FAD, flavin adenine dinucleotide, reference compound]
Function as electron acceptor/carrier for the purified yeast enzyme [4]: could not act as electron carrier | Effectiveness as cofactor of the cell-free SADH system [8]: not effective

C [Methane]
Rate of product formation (substrate to epoxide or alcohol) [1]: 4.8 μ moles/hr/mg of protein | Propylene oxide produced [9]: 0 μmoles/hr/mg. protein | Product formed [10]: 4.2 µmol | O2 consumed [10]: 4.6 µmol | NADH oxidized [10]: 4.8 µmol

NC(=O)C1=CN([C@@H]2O[C@H](COP(=O)(O)OP(=O)(O)OC[C@H]3O[C@@H](n4cnc5c(N)ncnc54)[C@H](OP(=O)(O)O)[C@@H]3O)[C@@H](O)[C@H]2O)C=CC1 [NAD(P)H]
Effectiveness as cofactor of the cell-free SADH system [8]: not effective

NC(=O)c1ccc[n+]([C@@H]2O[C@H](COP(=O)([O-])OP(=O)(O)OC[C@H]3O[C@@H](n4cnc5c(N)ncnc54)[C@H](O)[C@@H]3O)[C@@H](O)[C@H]2O)c1 [NAD, Nicotinamide adenine dinucleotide, reference compound]
Function as electron acceptor/carrier for the purified yeast enzyme [4]: required | Effectiveness as cofactor of the cell-free SADH system [8]: required

NC(=O)c1ccc[n+]([C@@H]2O[C@H](COP(=O)([O-])OP(=O)(O)OC[C@H]3O[C@@H](n4cnc5c(N)ncnc54)[C@H](OP(=O)(O)O)[C@@H]3O)[C@@H](O)[C@H]2O)c1 [NADP, reference compound]
Function as electron acceptor/carrier for the purified yeast enzyme [4]: could not act as electron carrier | Effectiveness as cofactor of the cell-free SADH system [8]: not effective

C=CC [Propylene]
Rate of product formation (substrate to epoxide or alcohol) [1]: 4.1 μ moles/hr/mg of protein | Propylene oxide produced [9]: 4.3 μmoles/hr/mg. protein | Product formed [10]: 4.5 µmol | O2 consumed [10]: 4.8 µmol | NADH oxidized [10]: 5.0 µmol | Inhibition of conversion of C3-C6 n-alkanes to sec. alcohols (in words) [11]: inhibit | Inhibition of conversion of C3-C6 n-alkanes to sec. alcohols (in words) ([11]; listed as propylene): inhibited

c1ccccc1 [benzene]
Oxidative conversion [7]: no oxidative conversion was detected

O=C1C(Cl)=CC(=Nc2ccc(O)cc2)C=C1Cl [dichlorophenol indophenol, reference compound]
Function as electron acceptor/carrier for the purified yeast enzyme [4]: could not act as electron carrier | Effectiveness as cofactor of the cell-free SADH system [8]: not effective

N[C@@H](CCC(=O)N[C@@H](CS)C(=O)NCC(=O)O)C(=O)O [glutathione]
Inhibition of secondary alcohol dehydrogenase activity (in words) [12]: strongly inhibited | Effectiveness as cofactor of the cell-free SADH system [8]: not effective

C[n+]1c2ccccc2nc2ccccc21 [phenazine methosulfate, reference compound]
Function as electron acceptor/carrier for the purified yeast enzyme [4]: could not act as electron carrier | Effectiveness as cofactor of the cell-free SADH system [8]: not effective

Cc1ccccc1 [toluene]
Oxidative conversion [7]: no oxidative conversion was detected

From patent US4269940A, “Microbiological alkane oxidation process” (priority 1979, dated 1981)
